Measurements taken from US10947242B2, “[1,2,4]triazolo[1,5and#8208;A]pyrimidine compounds as PDE2 inhibitors” (Janssen Pharmaceutica NV, priority 2016, dated 2021).
Read-outs that look alike come from different tables or passages of the source.

What was measured:
Assay type in all cases: biochemical
[1] = target: T1, Human recombinant PDE2A (hPDE2A) (Homo sapiens, UniProt O00408); assay: In vitro assay PDE2A (SPA, 3H-cGMP hydrolysis); conditions: for Emax: read-out: hPDE2A Emax
T1 construct: His tag (inferred from metal chelate purification); made in house; host or cells: Sf9 insect cells (baculovirus)

[2] = target: T2, Human recombinant PDE10A (hPDE10A) (Homo sapiens, UniProt Q9Y233); assay: In vitro assay PDE10A, human clone (SPA, 3H-cAMP hydrolysis)
T2 construct: His tag (inferred from metal chelate purification); made in house; host or cells: Sf9 insect cells (baculovirus)
Procedure, shortened: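 Hydrolysis of 3H-cAMP (60 nM cAMP, 0.008 μCi tracer) proceeded for 60 min at room temperature, with the product detected by SPA bead scintillation counting. The enzyme was hPDE10A from baculovirus-infected Sf9 cells in Tris pH 7.8 buffer with MgCl2 and EGTA, and compounds were at 1% DMSO final. Blanks lacked enzyme.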

[3] = target: T3, Human recombinant PDE3A (hPDE3A) (Homo sapiens, UniProt Q14432); assay: In vitro assay PDE3A (SPA, 3H-cAMP hydrolysis); conditions: for IC50: hPDE3B pIC50, read-out: pIC50 (converted); for Emax: read-out: hPDE3B Emax, read-out: Emax;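 as to all read-outs here: the method names PDE3A and the table heading PDE3B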
T3 construct: purchased Scottish Biomedical; host or cells: Sf9 insect cells
Procedure, shortened: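 Radiometric SPA measuring [3H]-cAMP hydrolysis (0.4 μM cAMP, 2.4 μCi/ml) over 60 min at room temperature, in Tris pH 7.8 buffer with MgCl2 and EGTA, 1% DMSO. Enzyme: recombinant human brain PDE3A expressed in Sf9 cells, used as partially purified lysate. Counts compared with enzyme-free blanks and vehicle controls.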

[4] = human recombinant PDE2A, 10 μM cGMP substrate, read-out: hPDE2A pIC50 (converted)
[5] = read-out: hPDE2A pIC50 (converted)
[6] = human clone (h), default, read-out: hPDE10A2 Emax
[7] = human clone (h), default, read-out: hPDE10A2 pIC50 (converted)
[8] = human clone by default (no (r) mark), read-out: hPDE10A2 or rPDE10A2 Emax
[9] = human clone by default (no (r) mark), read-out: hPDE10A2 or rPDE10A2 pIC50 (converted)
[10] = human clone by default (no (r) mark)

T3 sequence (Q14432 whole entry): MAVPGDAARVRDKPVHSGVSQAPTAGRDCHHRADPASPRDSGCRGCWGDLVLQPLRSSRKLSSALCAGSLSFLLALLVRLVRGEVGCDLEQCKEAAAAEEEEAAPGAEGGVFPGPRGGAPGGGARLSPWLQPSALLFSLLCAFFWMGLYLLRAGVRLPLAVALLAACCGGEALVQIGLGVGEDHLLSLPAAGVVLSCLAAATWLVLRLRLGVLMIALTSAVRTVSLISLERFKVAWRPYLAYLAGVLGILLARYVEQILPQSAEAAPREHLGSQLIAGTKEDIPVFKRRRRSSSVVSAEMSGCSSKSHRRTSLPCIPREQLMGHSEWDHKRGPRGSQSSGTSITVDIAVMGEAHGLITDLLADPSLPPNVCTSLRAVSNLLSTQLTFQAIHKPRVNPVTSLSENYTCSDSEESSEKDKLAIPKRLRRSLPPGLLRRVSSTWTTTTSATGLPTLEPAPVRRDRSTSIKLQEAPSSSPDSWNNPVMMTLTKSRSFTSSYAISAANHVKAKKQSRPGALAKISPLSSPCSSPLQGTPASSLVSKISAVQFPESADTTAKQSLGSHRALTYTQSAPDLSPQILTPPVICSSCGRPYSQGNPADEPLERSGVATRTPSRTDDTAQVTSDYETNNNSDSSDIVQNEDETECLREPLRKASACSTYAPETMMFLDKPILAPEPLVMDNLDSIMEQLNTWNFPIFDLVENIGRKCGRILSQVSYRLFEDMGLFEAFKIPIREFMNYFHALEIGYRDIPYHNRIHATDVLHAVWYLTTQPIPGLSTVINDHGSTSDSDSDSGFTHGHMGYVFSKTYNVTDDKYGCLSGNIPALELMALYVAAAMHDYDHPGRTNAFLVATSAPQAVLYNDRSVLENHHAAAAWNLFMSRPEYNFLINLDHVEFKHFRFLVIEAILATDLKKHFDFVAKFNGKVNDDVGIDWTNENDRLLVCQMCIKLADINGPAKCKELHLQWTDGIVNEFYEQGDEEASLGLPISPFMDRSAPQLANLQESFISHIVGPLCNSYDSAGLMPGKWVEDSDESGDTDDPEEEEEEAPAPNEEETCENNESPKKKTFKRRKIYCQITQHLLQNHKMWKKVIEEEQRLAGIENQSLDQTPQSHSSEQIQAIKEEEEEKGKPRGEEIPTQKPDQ
T1 sequence (O00408 whole entry): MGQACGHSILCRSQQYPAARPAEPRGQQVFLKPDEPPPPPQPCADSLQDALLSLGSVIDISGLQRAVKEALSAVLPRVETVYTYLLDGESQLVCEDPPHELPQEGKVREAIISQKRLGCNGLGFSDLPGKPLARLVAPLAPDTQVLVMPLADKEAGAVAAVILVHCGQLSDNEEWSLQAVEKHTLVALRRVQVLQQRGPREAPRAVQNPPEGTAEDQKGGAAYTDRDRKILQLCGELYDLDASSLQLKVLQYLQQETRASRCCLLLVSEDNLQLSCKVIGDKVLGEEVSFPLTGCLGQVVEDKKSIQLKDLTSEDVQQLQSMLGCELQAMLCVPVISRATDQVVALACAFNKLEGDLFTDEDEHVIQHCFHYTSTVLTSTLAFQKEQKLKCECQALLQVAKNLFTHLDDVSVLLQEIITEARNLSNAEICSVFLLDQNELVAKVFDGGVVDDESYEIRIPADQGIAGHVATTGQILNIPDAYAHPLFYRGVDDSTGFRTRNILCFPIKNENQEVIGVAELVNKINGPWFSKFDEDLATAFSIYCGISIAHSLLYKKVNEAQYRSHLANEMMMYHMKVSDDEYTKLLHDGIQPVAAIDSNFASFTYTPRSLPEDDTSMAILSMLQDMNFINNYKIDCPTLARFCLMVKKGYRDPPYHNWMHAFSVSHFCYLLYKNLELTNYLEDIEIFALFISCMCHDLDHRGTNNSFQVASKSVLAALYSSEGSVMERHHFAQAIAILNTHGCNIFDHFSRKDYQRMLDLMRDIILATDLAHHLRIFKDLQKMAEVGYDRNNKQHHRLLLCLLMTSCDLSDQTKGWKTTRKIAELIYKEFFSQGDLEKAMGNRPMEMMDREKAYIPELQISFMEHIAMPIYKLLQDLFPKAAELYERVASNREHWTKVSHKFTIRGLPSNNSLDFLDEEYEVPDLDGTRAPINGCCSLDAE
T2 sequence (Q9Y233 267-1055): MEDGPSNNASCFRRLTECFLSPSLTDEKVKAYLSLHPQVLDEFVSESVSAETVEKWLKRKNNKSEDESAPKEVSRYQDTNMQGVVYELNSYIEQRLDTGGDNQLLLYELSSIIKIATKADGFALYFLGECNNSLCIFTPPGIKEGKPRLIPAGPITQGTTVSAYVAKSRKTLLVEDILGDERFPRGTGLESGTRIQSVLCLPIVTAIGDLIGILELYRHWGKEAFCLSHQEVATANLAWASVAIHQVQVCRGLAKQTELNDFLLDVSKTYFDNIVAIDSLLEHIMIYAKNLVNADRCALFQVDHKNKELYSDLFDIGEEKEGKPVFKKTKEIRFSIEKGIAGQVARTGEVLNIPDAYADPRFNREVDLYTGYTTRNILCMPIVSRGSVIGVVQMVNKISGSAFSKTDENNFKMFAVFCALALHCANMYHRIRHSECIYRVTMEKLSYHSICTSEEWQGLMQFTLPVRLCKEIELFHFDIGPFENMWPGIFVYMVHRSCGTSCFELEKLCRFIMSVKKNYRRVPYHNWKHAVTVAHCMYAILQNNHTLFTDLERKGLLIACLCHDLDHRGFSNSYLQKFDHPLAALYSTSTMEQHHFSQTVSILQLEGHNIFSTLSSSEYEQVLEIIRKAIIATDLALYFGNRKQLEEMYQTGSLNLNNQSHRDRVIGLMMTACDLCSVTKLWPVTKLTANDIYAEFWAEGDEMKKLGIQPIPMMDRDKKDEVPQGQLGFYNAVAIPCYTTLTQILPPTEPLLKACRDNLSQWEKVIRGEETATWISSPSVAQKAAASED

| Structure (SMILES) | IC50 [1, 4] [nM] | Emax ([1]; human recombinant PDE2A) [%] | Emax [1] [%] | IC50 [1, 5] [nM] | Emax [2, 6] [%] | IC50 [2, 7] [nM] | Emax [2, 8] [%] | IC50 [2, 9] [nM] | IC50 [3] [nM] | Emax [3] [%] | IC50 ([1]; hPDE2A pIC50) [nM] | hPDE2A Emax [1] | hPDE10A2 or rPDE10A2 Emax [2, 10] | hPDE10A2 or rPDE10A2 pIC50 [2, 10] | hPDE3B Emax [3] | hPDE2A pIC50 [1] | hPDE2A Emax ([1]; human recombinant PDE2A) | hPDE2A pIC50 ([1]; human recombinant PDE2A, 10 μM cGMP substrate) | hPDE10A2 Emax ([2]; human clone (h), default) | hPDE10A2 pIC50 ([2]; human clone (h), default) |
| --- | --- | --- | --- | --- | --- | --- | --- | --- | --- | --- | --- | --- | --- | --- | --- | --- | --- | --- | --- | --- |
| Cc1cccnc1C(=O)N1CC[C@@H](C)[C@H](c2cc(C(F)F)nc3ncnn23)C1 [Compound 229] | 562 | 95 | 95 | 562 | 33 | > 10000 | 33 | > 10000 | > 10000 | 18 |  |  |  |  |  |  |  |  |  |  |
| CCCC[C@H]1CCN(C(=O)c2cc(C)nc(C)c2)C[C@H]1c1cc(C(F)F)nc2ncnn12 (mixture of isomers) [Compound 219] | 138 | 100 | 100 | 138 | 45 | 9120 | 45 | 9120 | > 10000 | 18 |  |  |  |  |  |  |  |  |  |  |
| C[C@@H]1CCN(C(=O)c2cocn2)C[C@H]1c1cc(C(F)F)nc2ncnn12 [Compound 87] | 214 | 98 | 98 | 214 | 69 | 4570 |  |  | > 10000 | 11 |  |  |  |  |  |  |  |  |  |  |
| Cc1cc([C@@H]2CN(C(=O)c3ccc(C(C)(C)C)o3)CC[C@H]2C)n2ncnc2n1 [Compound 9] | 13.8 | 101 | 101 | 13.8 | 100 | 74.1 |  |  | 4270 | 74 |  |  |  |  |  |  |  |  |  |  |
| Cn1cnc2cc(C(=O)N3[C@H]4CC[C@H](c5cc(C(F)F)nc6ncnn56)[C@@H]3CC4)ccc21 [Compound 379] |  |  | 102 | 11.2 |  |  | 87 | 1620 | 5250 | 67 |  |  |  |  |  |  |  |  |  |  |
| C[C@@H]1CCN(C(=O)c2cc(C(C)(C)C)cc(C(C)(C)C)c2)C[C@H]1c1cc(C(F)F)nc2ncnn12 [Compound 259] |  |  | 99 |  | 92 | 1700 | 92 | 1700 | 3550 | 82 | 427 |  |  |  |  |  |  |  |  |  |
| Cc1csc(C(=O)N2CC[C@@H](C)[C@H](c3cc(C(F)F)nc4ncnn34)C2)c1Cl [Compound 147] | 38 | 100 | 100 | 38 | 90 | 871 |  |  | 2240 | 81 |  |  |  |  |  |  |  |  |  |  |
| Cc1ccc(C(=O)N2[C@H]3CC[C@H](c4cc(C(F)F)nc5ncnn45)[C@@H]2CC3)s1 [Compound 349] |  |  | 102 | 22.4 |  |  | 86 | 1780 | 4790 | 64 |  |  |  |  |  |  |  |  |  |  |
| C[C@@H]1CCN(C(=O)c2cccc3c2ncn3C)C[C@H]1c1cc(C(F)F)nc2ncnn12 [Compound 178] | 13.5 | 101 | 101 | 13.5 | 92 | 794 |  |  | 7410 | 62 |  |  |  |  |  |  |  |  |  |  |
| Cc1cc(C(=O)N2CC[C@H](C)[C@@](F)(c3cc(C(F)F)nc4ncnn34)C2)cc(C2CC2)n1 [Compound 24a] | 2570 | 80 | 80 | 2570 | 23 | > 10000 |  |  | > 10000 | 31 |  |  |  |  |  |  |  |  |  |  |
| Cc1c(C(=O)N2CC[C@@H](C)[C@H](c3cc(C(F)F)nc4ncnn34)C2)ccnc1Cl [Compound 159] | 72.4 | 100 | 100 | 72.4 | 75 | 3240 |  |  | > 10000 | 42 |  |  |  |  |  |  |  |  |  |  |
| C[C@@H]1CCN(C(=O)c2ccnnc2)C[C@H]1c1cc(C(F)F)nc2ncnn12 [Compound 248] |  |  | 95 | 347 | 49 | 10500 | 49 | 10500 | > 10000 | 2 |  |  |  |  |  |  |  |  |  |  |
| C[C@@H]1CCN(C(=O)c2cccc3c2OC(F)(F)O3)C[C@H]1c1cc(C(F)F)nc2ncnn12 [Compound 63] | 7.24 | 100 | 100 | 7.24 | 89 | 871 |  |  | 6920 | 60 |  |  |  |  |  |  |  |  |  |  |
| C[C@@H]1CCN(C(=O)c2ccc(F)c(F)c2F)C[C@H]1c1cc(C(F)F)nc2ncnn12 [Compound 245] |  |  | 99 | 123 | 79 | 2190 | 79 | 2190 | 5890 | 62 |  |  |  |  |  |  |  |  |  |  |
| O=C(c1ccnc2ccccc12)N1[C@H]2CC[C@H](c3cc(C(F)F)nc4ncnn34)[C@@H]1CC2 [Compound 318] |  |  |  |  |  |  |  |  |  |  |  | 89 | 13 | <5 | 11 |  |  |  |  |  |
| Cc1cc(C(=O)N2CC[C@@H](C)[C@H](c3cc(C(F)F)nc4ncnn34)C2)c(F)c(C(F)(F)F)n1 [Compound 396] |  |  | 98 | 15.1 |  |  | 84 | 1480 | > 10000 | 56 |  |  |  |  |  |  |  |  |  |  |
| C[C@]1(c2cc(C(F)F)nc3ncnn23)CCCN(C(=O)c2ccc3c(ccn3CCF)c2)C1 (single isomer, unassigned) [Compound 200] | 97.7 | 91 | 91 | 97.7 | 13 | > 10000 |  |  | > 10000 | 35 |  |  |  |  |  |  |  |  |  |  |
| Cc1nc(C(F)(F)F)ccc1C(=O)N1CC[C@@H](C)[C@H](c2cc(C(F)F)nc3ncnn23)C1 [Compound 263] |  |  | 99 | 129 | 64 | 5130 | 64 | 5130 | 4900 | 65 |  |  |  |  |  |  |  |  |  |  |
| C[C@@H]1CCN(C(=O)c2ccc(F)c(C3CC3)c2)C[C@H]1c1cc(C(F)F)nc2ncnn12 [Compound 135] | 3.31 | 100 | 100 | 3.31 | 97 | 191 |  |  | 2630 | 81 |  |  |  |  |  |  |  |  |  |  |
| Cc1cc(C(=O)N2CC[C@@H](C)[C@H](c3cc(C(F)F)nc4ncnn34)C2)cc(CO)n1 [Compound 361] |  |  | 100 | 2.75 |  |  | 92 | 355 | > 10000 | 37 |  |  |  |  |  |  |  |  |  |  |
| Cc1cc([C@@H]2CN(C(=O)c3ccn(C)c3)CC[C@H]2C)n2ncnc2n1 [Compound 14] | 6.03 | 99 | 99 | 6.03 | 99 | 89.1 |  |  | 4680 | 70 |  |  |  |  |  |  |  |  |  |  |
| Cc1cc(C(=O)N2CC[C@@H](C)[C@H](c3cc(C(F)F)nc4ncnn34)C2)no1 [Compound 157] | 60.3 | 99 | 99 | 60.3 | 75 | 2570 |  |  | > 10000 | 33 |  |  |  |  |  |  |  |  |  |  |
| Cc1csc(C(=O)N2CCC[C@](C)(c3cc(C(F)F)nc4ncnn34)C2)c1 (single isomer, unassigned) [Compound 208] | 589 | 62 | 62 | 589 | 4 | > 10000 |  |  | > 10000 | 30 |  |  |  |  |  |  |  |  |  |  |
| C[C@]1(c2cc(C(F)F)nc3ncnn23)CCCN(C(=O)c2ccc3nccn3c2)C1 (single isomer, unassigned) [Compound 212] | 575 | 61 | 61 | 575 | 8 | > 10000 |  |  | > 10000 | 7 |  |  |  |  |  |  |  |  |  |  |
| Cc1cc(C(=O)N2CC[C@H](C)[C@@H](c3cc(C)nc4ncnn34)C2)cc(C)n1 [Compound 1b] |  |  |  |  |  |  |  |  |  |  |  | 88 |  |  | 13 | 5.96 | 88 | 5.96 | 50 | 5.01 |
| C[C@@H]1CCN(C(=O)c2ccn(C)c2)C[C@H]1c1cc(C(F)F)nc2ncnn12 [Compound 67] | 2.57 | 99 | 99 | 2.57 | 94 | 288 |  |  | > 10000 | 49 |  |  |  |  |  |  |  |  |  |  |
| O=C(c1cc(F)cc(F)c1)N1[C@H]2CC[C@H](c3cc(C(F)F)nc4ncnn34)[C@@H]1CC2 [Compound 341] |  |  | 97 | 141 |  |  | 63 | 5010 | > 10000 | 33 |  |  |  |  |  |  |  |  |  |  |
| CC(C)c1n[nH]cc1C(=O)N1CC[C@@H](C)[C@H](c2cc(C(F)F)nc3ncnn23)C1 [Compound 61] | 4.37 | 101 | 101 | 4.37 | 92 | 457 |  |  | > 10000 | 45 |  |  |  |  |  |  |  |  |  |  |
